The values that follow come from patent US7592160B2, “Processes for producing isomaltose and isomaltitol and use thereof” (Kabushiki Kaisha Hayashibara Seibutsu Kagaku Kenkyujo, priority 2001, dated 2009).

In assay [1] the test system is α-isomaltosylglucosaccharide-forming enzyme. The assay can be described thus: Transfer-acceptor specificity, enzyme of C9 strain. The assay is classed as biochemical, Bacillus globisporus C9 strain. To be noted: acceptor 1.6%, PINE-DEX #100 donor 4%, one unit/g donor, 30° C., pH 6.0, 24 hours. The procedure, abridged:
(§1)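 Acceptor saccharides at 1.6% with partial starch hydrolyzate donor at 4% and purified enzyme at 1 unit/g donor, d.s.b., 30 °C, 24 h, pH 6.0 (pH 8.4 for A19 enzyme). Transfer products of mono- and disaccharide acceptors analysed by GLC, of trisaccharide acceptors by HPLC with refractometer detection.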

For assay [2] the test system is unchanged. The assay can be described thus: Action on saccharides as substrates (TLC), enzyme of C9 strain. The assay is classed as biochemical, Bacillus globisporus C9 strain. Set-up: key: −: it showed no change; +: it showed a slight reduction of the color spot of the substrate and the formation of other reaction product; ++: it showed a high reduction of the color spot of the substrate and the formation of other reaction product; +++: it showed a substantial disappearance of the substrate spot and the formation of other reaction product. To be noted: two units/g substrate, substrate 2% (w/v), 30° C., pH 6.0, 24 hours. The text has this:
(§2) To examine the saccharides in the supernatant, they were separated by developing twice on silica gel thin-layer chromatography (abbreviated as “TLC” hereinafter) using, as a developer, a mixture solution of n-butanol, pyridine, and water (=6:4:1 by volume), and, as a thin-layer plate, “[…]™ 60”, an aluminum plate (20×20 cm) for TLC commercialized by Merck & Co., Inc., Rahway, USA. The coloration of the separated total sugars by the sulfuric acid-methanol method and that of the reducing saccharides by the diphenylamine-aniline method detected a non-reducing saccharide positive at an Rf value of about 0.31 on the former detection method but negative on the latter detection method.
(§3) It was tested whether any saccharides can be used as substrates for α-isomaltosylglucosaccharide-forming enzyme. For the purpose, a solution of maltose, maltotriose, maltotetraose, maltopentaose, maltohexaose, maltoheptaose, isomaltose, isomaltotriose, panose, isopanose, α,α-trehalose, kojibiose, nigerose, neotrehalose, cellobiose, gentibiose, maltitol, maltotriitol, lactose, sucrose, erlose, selaginose, maltosyl glucoside, or isomaltosyl glucoside was prepared.
(§4) To each of the above solutions was added two units/g substrate of a purified specimen of α-isomaltosylglucosaccharide-forming enzyme from either Bacillus globisporus C9 strain obtained by the method in Experiment 4-2, Bacillus globisporus C11 strain obtained by the method in Experiment 7-2, Bacillus globisporus N75 strain obtained by the method in Experiment 11-2, or Arthrobacter globiformis A19 strain obtained by the method in Experiment 15-2, and the resulting each solution was adjusted to give a substrate concentration of 2% (w/v) and incubated at 30° C. and pH 6.0 for 24 hours, except for using pH 8.4 for the enzyme from Arthrobacter globiformis A19 strain. The enzyme solutions before and after the enzymatic reactions were respectively analyzed on TLC disclosed in Experiment 1 to confirm whether the enzymes acted on these substrates.

The test system is the same in assay [3]. The assay can be described thus: Action on saccharides as substrates (TLC), enzyme of N75 strain. More on the design: key: −: it showed no change; +: it showed a slight reduction of the color spot of the substrate and the formation of other reaction product; ++: it showed a high reduction of the color spot of the substrate and the formation of other reaction product; +++: it showed a substantial disappearance of the substrate spot and the formation of other reaction product. The assay is classed as biochemical, Bacillus globisporus N75 strain. The note with it: two units/g substrate, substrate 2% (w/v), 30° C., pH 6.0, 24 hours.
Excerpt: as §2, §3, §4

Assay [4] shares this test system. The assay can be described thus: Action on saccharides as substrates (TLC), enzyme of A19 strain. The assay is classed as biochemical, Arthrobacter globiformis A19 strain. Set-up: key: −: it showed no change; +: it showed a slight reduction of the color spot of the substrate and the formation of other reaction product; ++: it showed a high reduction of the color spot of the substrate and the formation of other reaction product; +++: it showed a substantial disappearance of the substrate spot and the formation of other reaction product. To be noted: two units/g substrate, substrate 2% (w/v), 30° C., pH 8.4, 24 hours.
Excerpt: as §2, §3, §4

Assay [5] has the same test system. Briefly: Transfer-acceptor specificity, enzyme of N75 strain. To be noted: acceptor 1.6%, PINE-DEX #100 donor 4%, one unit/g donor, 30° C., pH 6.0, 24 hours. The assay is classed as biochemical, Bacillus globisporus N75 strain. The procedure, abridged: as §1
Assay [6] has the same test system. The assay can be described thus: Action on saccharides as substrates (TLC), enzyme of C11 strain. The assay is classed as biochemical, Bacillus globisporus C11 strain. More on the design: key: −: it showed no change; +: it showed a slight reduction of the color spot of the substrate and the formation of other reaction product; ++: it showed a high reduction of the color spot of the substrate and the formation of other reaction product; +++: it showed a substantial disappearance of the substrate spot and the formation of other reaction product. The note with it: two units/g substrate, substrate 2% (w/v), 30° C., pH 6.0, 24 hours.
Excerpt: as §2, §3, §4

Assay [7] shares this test system. Briefly: Transfer-acceptor specificity, enzyme of C11 strain. The assay is classed as biochemical, Bacillus globisporus C11 strain. The note with it: acceptor 1.6%, PINE-DEX #100 donor 4%, one unit/g donor, 30° C., pH 6.0, 24 hours. The procedure, abridged:
as §1

Assay [8] shares this test system. Briefly: Transfer-acceptor specificity, enzyme of A19 strain. The assay is classed as biochemical, Arthrobacter globiformis A19 strain. To be noted: acceptor 1.6%, PINE-DEX #100 donor 4%, one unit/g donor, 30° C., pH 8.4, 24 hours. In a few lines: as §1

As to `OC[C@H]1O[C@@H](O[C@H]2[C@H](O)[C@@H](O)C(O)O[C@@H]2CO)[C@H](O)[C@@H](O)[C@H]1O` (some centres unmarked) [Lactose, lactose], the “Product of transferring reaction, Enzyme of C9 strain” value (“Product … of C9 strain” below) in assay [1] is reported as “++ (a saccharide-transferred product was detected in an amount over ten percent through transfer reaction to acceptor)”. For the same compound, in assay [2], the “Enzymatic action, Enzyme of C9 strain” value is “−”. The “Enzymatic action, Enzyme of N75 strain” value in assay [3] is listed as “−”. For the same compound, the “Enzymatic action, Enzyme of A19 strain” value in assay [4] is “−”. Further, in assay [5], the “Product of transferring reaction, Enzyme of N75 strain” value (“Product … of N75 strain” below) is given as “++ (a saccharide-transferred product was detected in an amount over ten percent through transfer reaction to acceptor)”. Further, the “Enzymatic action, Enzyme of C11 strain” value in assay [6] was “−”. In addition, the “Product of transferring reaction, Enzyme of C11 strain” value (“Product … of C11 strain” for short) in assay [7] was “++ (a saccharide-transferred product was detected in an amount over ten percent through transfer reaction to acceptor)”. Further, the “Product of transferring reaction, Enzyme of A19 strain” value (from here on “Product … of A19 strain”) in assay [8] is on record as “++ (a saccharide-transferred product was detected in an amount over ten percent through transfer reaction to acceptor)”.

As for `OC[C@@H](O)[C@@H](O[C@H]1O[C@H](CO)[C@@H](O)[C@H](O)[C@H]1O)[C@H](O)[C@@H](O)CO` [Maltitol, maltitol], in assay [1], the “Product … of C9 strain” value is “++ (a saccharide-transferred product was detected in an amount over ten percent through transfer reaction to acceptor)”. Also, the “Enzymatic action, Enzyme of C9 strain” value in assay [2] is reported as “−”. The “Enzymatic action, Enzyme of N75 strain” value in assay [3] is given as “−”. In addition, the “Enzymatic action, Enzyme of A19 strain” value in assay [4] is “−”. Besides, the “Product … of N75 strain” value in assay [5] is given as “++ (a saccharide-transferred product was detected in an amount over ten percent through transfer reaction to acceptor)”. Besides, the “Enzymatic action, Enzyme of C11 strain” value in assay [6] is recorded as “−”. For the same compound, the “Product … of C11 strain” value in assay [7] is “++ (a saccharide-transferred product was detected in an amount over ten percent through transfer reaction to acceptor)”. Also, in assay [8], the “Product … of A19 strain” value is “++ (a saccharide-transferred product was detected in an amount over ten percent through transfer reaction to acceptor)”.

Regarding `OC[C@H]1O[C@@](CO)(O[C@H]2O[C@H](CO)[C@@H](O)[C@H](O)[C@H]2O)[C@@H](O)[C@@H]1O` [Sucrose, sucrose], the “Product … of C9 strain” value in assay [1] is “++ (a saccharide-transferred product was detected in an amount over ten percent through transfer reaction to acceptor)”. For the same compound, the “Enzymatic action, Enzyme of C9 strain” value in assay [2] is on record as “−”. For the same compound, in assay [3], the “Enzymatic action, Enzyme of N75 strain” value was “−”. Besides, in assay [4], the “Enzymatic action, Enzyme of A19 strain” value is recorded as “−”. Besides, the “Product … of N75 strain” value in assay [5] is given as “++ (a saccharide-transferred product was detected in an amount over ten percent through transfer reaction to acceptor)”. Further, the “Enzymatic action, Enzyme of C11 strain” value in assay [6] is “−”. The “Product … of C11 strain” value in assay [7] is recorded as “++ (a saccharide-transferred product was detected in an amount over ten percent through transfer reaction to acceptor)”. Moreover, in assay [8], the “Product … of A19 strain” value is “++ (a saccharide-transferred product was detected in an amount over ten percent through transfer reaction to acceptor)”.

As to `OC[C@H]1O[C@H](O[C@H]2O[C@H](CO)[C@@H](O)[C@H](O)[C@H]2O)[C@H](O)[C@@H](O)[C@@H]1O` [Trehalose, α,α-trehalose], in assay [1], the “Product … of C9 strain” value is “++ (a saccharide-transferred product was detected in an amount over ten percent through transfer reaction to acceptor)”. Also, the “Enzymatic action, Enzyme of C9 strain” value in assay [2] is on record as “−”. For the same compound, the “Enzymatic action, Enzyme of N75 strain” value in assay [3] is “−”. The “Enzymatic action, Enzyme of A19 strain” value in assay [4] is “−”. The “Product … of N75 strain” value in assay [5] is listed as “++ (a saccharide-transferred product was detected in an amount over ten percent through transfer reaction to acceptor)”. Also, in assay [6], the “Enzymatic action, Enzyme of C11 strain” value is listed as “−”. In addition, the “Product … of C11 strain” value in assay [7] is listed as “++ (a saccharide-transferred product was detected in an amount over ten percent through transfer reaction to acceptor)”. Moreover, in assay [8], the “Product … of A19 strain” value is on record as “++ (a saccharide-transferred product was detected in an amount over ten percent through transfer reaction to acceptor)”.
